{
  "source": "PubChem BioAssay (NCI)",
  "assay_in_all_cases": "DTP human tumour cell line panel, 48 h",
  "key": {"[1]": {"system": "DMS 114 small cell lung"}, "[2]": {"system": "HOP-18 NSCLC"}, "[3]": {"system": "M19-MEL melanoma"}, "[4]": {"system": "SNB-78 CNS"}, "[5]": {"system": "KM20L2 colon"}, "[6]": {"system": "XF 498 CNS"}, "[7]": {"system": "RXF-631 renal"}},
  "note": "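Interpolation was linear, between the two tested concentrations surrounding the appropriate level; five concentrations were tested over 48 hours in 96-well plates. Abbreviation: GI50, concentration required for 50% inhibition of growth. TGI denotes the concentration required for complete inhibition of growth.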",
  "data": [
    {"smiles": "CC(Sc1ccccc1)C(CO)(CO)[N+](=O)[O-]", "note": "(stereo unspecified)", "values": [
      {"measurement": "TGI", "setting": "[1]", "value": 32.5, "unit": "µM"},
      {"measurement": "TGI", "setting": "[2]", "value": 45.6, "unit": "µM"},
      {"measurement": "TGI", "setting": "[3]", "value": 30.9, "unit": "µM"},
      {"measurement": "TGI", "setting": "[4]", "value": 66.7, "unit": "µM"},
      {"measurement": "TGI", "setting": "[5]", "value": 31.7, "unit": "µM"}
    ]},
    {"smiles": "CC(=O)N(C)c1ccc2c(ccc[n+]2[O-])c1[N+](=O)[O-]", "values": [
      {"measurement": "TGI", "setting": "[1]", "value": "> 100", "unit": "µM"},
      {"measurement": "TGI", "setting": "[6]", "value": "> 100", "unit": "µM"},
      {"measurement": "TGI", "setting": "[2]", "value": "> 100", "unit": "µM"},
      {"measurement": "TGI", "setting": "[3]", "value": "> 100", "unit": "µM"},
      {"measurement": "TGI", "setting": "[7]", "value": "> 100", "unit": "µM"},
      {"measurement": "TGI", "setting": "[4]", "value": "> 100", "unit": "µM"},
      {"measurement": "TGI", "setting": "[5]", "value": "> 100", "unit": "µM"}
    ]},
    {"smiles": "CCOC(=O)C1CCn2c(nc3c2c(=O)n(C)c(=O)n3C)S1", "note": "(stereo unspecified)", "values": [
      {"measurement": "TGI", "setting": "[2]", "value": "> 100", "unit": "µM"},
      {"measurement": "TGI", "setting": "[4]", "value": "> 100", "unit": "µM"},
      {"measurement": "TGI", "setting": "[5]", "value": "> 100", "unit": "µM"}
    ]},
    {"smiles": "C/C(=N\\NC(=O)c1cccnc1)c1cccc(/C(C)=N/NC(=O)c2cccnc2)n1", "values": [
      {"measurement": "GI50", "setting": "[1]", "value": 2.7, "unit": "µM"},
      {"measurement": "TGI", "setting": "[1]", "value": 15.9, "unit": "µM"},
      {"measurement": "GI50", "setting": "[2]", "value": 1.06, "unit": "µM"},
      {"measurement": "TGI", "setting": "[2]", "value": 6.15, "unit": "µM"},
      {"measurement": "TGI", "setting": "[3]", "value": 68.6, "unit": "µM"},
      {"measurement": "GI50", "setting": "[4]", "value": 7.53, "unit": "µM"},
      {"measurement": "TGI", "setting": "[4]", "value": 97.9, "unit": "µM"},
      {"measurement": "TGI", "setting": "[5]", "value": "> 100", "unit": "µM"}
    ]},
    {"smiles": "COC(=O)C1C(C)N1C", "note": "(stereo unspecified)", "values": [
      {"measurement": "TGI", "setting": "[1]", "value": "> 100", "unit": "µM"},
      {"measurement": "TGI", "setting": "[6]", "value": "> 100", "unit": "µM"},
      {"measurement": "TGI", "setting": "[3]", "value": "> 100", "unit": "µM"},
      {"measurement": "TGI", "setting": "[7]", "value": "> 100", "unit": "µM"},
      {"measurement": "TGI", "setting": "[4]", "value": "> 100", "unit": "µM"}
    ]},
    {"smiles": "C[C@]12CC[C@@H]3c4ccccc4CC[C@H]3[C@@H]1CC[C@@H]2O", "values": [
      {"measurement": "TGI", "setting": "[3]", "value": "> 100", "unit": "µM"},
      {"measurement": "TGI", "setting": "[4]", "value": "> 100", "unit": "µM"},
      {"measurement": "TGI", "setting": "[5]", "value": "> 100", "unit": "µM"}
    ]}
  ]
}
